“And” between values parts separate entries of the source, which are not always exact repeats. Identical values can stand only once. The source made the active and inactive calls.
How the values were obtained:
[1] = target: Peroxisome proliferator-activated receptor gamma/Nuclear receptor corepressor 2 (Homo sapiens, UniProt P37231+Q9Y618); test: Counterscreen for NR2E3 inverse agonists: TR-FRET-based biochemical high throughput dose response assay to identify inverse agonists of the interaction between peroxisome proliferator-activated receptor gamma (PPARg) and nuclear receptor co-repressor 2 (NCOR2).; format: functional
[2] = target: Photoreceptor-specific nuclear receptor (Homo sapiens, UniProt Q9Y5X4); test: NR2E3 inverse agonists, dose response, biochemical, TR-FRET (AID 463256); format: functional
Bcl-2-related protein A1 [3] = target: T1, Bcl-2-related protein A1 (Mus musculus, UniProt Q07440); test: Bfl-1 inhibitors, primary screen, biochemical, fluorescence polarization, FITC-Bid, mouse (AID 432)
T1 sequence (Q07440 whole entry): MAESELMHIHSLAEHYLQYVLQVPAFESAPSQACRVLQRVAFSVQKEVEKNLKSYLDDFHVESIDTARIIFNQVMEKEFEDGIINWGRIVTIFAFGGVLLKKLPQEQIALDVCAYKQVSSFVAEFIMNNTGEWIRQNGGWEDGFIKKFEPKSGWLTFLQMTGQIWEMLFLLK

[4] = target: Glyceraldehyde-3-phosphate dehydrogenase (Homo sapiens, UniProt P04406)
Bcl-2-related protein A1 [5] = target: T1, Bcl-2-related protein A1; test: Bfl-1 inhibitors blocking BH3 peptide binding, confirmation, biochemical, TR-FRET, mouse Bfl-1 (AID 621);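 further: TR-FRET binding of GST-Bfl-1 to FITC-labelled Bid peptide via terbium antibody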
Bcl-2-related protein A1 [6] = target: T1, Bcl-2-related protein A1; test: Bfl-1 binding inhibitors, SAR follow-up, biochemical, fluorescence polarization (AID 1070)
[7] = growth suppression of PTEN-null colon cells, dose response, cell-based, HCT116 PTEN knockout (AID 1047); format: functional;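 further: HCT116 colon tumor cells with PTEN knocked out; cells exposed to compound for 60 hours before readout; potency for loss of cell viability measured by luminescence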
Estrogen receptor beta = Estrogen receptor beta (Homo sapiens, UniProt Q92731); test: ERβ–SRC-3 coactivator interaction inhibitors, confirmation, orthogonal assay, biochemical, ELISA, streptavidin-HRP readout (AID 1060)
[8] = growth suppression of beta-catenin-knockout colon cells, dose response, cell-based, HCT116, human colon tumor (AID 1045); format: functional;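 further: HCT116 colon tumor cells with beta catenin knocked out; cells exposed to compound for 60 hours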
[9] = inhibitors of firefly luciferase expression or activity, dose response, H4 neuroglioma cells, luminescence (AID 1990); format: functional, cell-based
BJ [10] = test: cytotoxicity toward BJ-TERT fibroblasts, dose response, cell-based, RAS-independent, luminescence (AID 1933); format: functional; conditions: Homo sapiens
[11] = Luminescence Cell-Based Dose Response HTS to Identify Inhibitors of 5'UTR Stem-Loop Driven Prion Protein mRNA Translation in H4 Neuroglioblastoma Cells. [Related pubchem assays: 1827 (Project Summary), 1813 (Primary HTS)]; format: functional
[12] = inhibitors of SNCA 5'UTR-driven reporter translation, confirmation, H4 neuroglioma cells, luminescence (AID 1988); format: functional, cell-based
BJ [13] = test: cells; format: functional, cell-based; conditions: Homo sapiens
[14] = microbe, parasite or virus in culture; format: functional; conditions: Mycobacterium tuberculosis
[15] = target: Heat shock protein HSP 90-alpha (Homo sapiens, UniProt P07900); test: Luminescence-based dose response biochemical high throughput screening assay for inhibitors of the Heat Shock Protein 90 (HSP90). [Related pubchem assays: 1831 (Summary AID.), 1846 (Confirmation screen.), 1789 (Primary screen.)]
BJ [16] = test: cytotoxicity toward BJ-TERT-LT-ST fibroblasts, dose response, cell-based, RAS-independent, luminescence (AID 1935); format: functional; conditions: Homo sapiens;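 further: BJ fibroblasts immortalized with TERT plus LT and ST oncogenes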
[17] = cytotoxicity toward DRD oncogenic fibroblasts, dose response, cell-based, non-viral oncogenic, luminescence (AID 1934); format: functional; conditions: Homo sapiens
[18] = target: T2, Ubiquitin-conjugating enzyme E2 N (Homo sapiens, UniProt P61088); format: functional;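 further: Dose-response confirmation in a TR-FRET assay detecting UBC13-driven polyubiquitin chain formation, inhibition measured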
T2 sequence (P61088 whole entry): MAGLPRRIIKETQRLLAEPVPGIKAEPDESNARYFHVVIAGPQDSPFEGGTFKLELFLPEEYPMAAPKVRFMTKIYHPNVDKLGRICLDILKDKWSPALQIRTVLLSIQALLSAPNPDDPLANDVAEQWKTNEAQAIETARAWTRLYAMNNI

[19] = inhibitors of intracellular T. cruzi replication, confirmation, NIH3T3 host cells, beta-gal luminescence (AID 2044); format: functional, cell-based;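 further: intracellular parasites grown in NIH/3T3 mouse fibroblasts as host cells; luminescent beta-galactosidase reporter signal from transgenic T. cruzi replicating inside host cells; inhibitors lower the luminescence signal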
[20] = cytotoxicity toward NIH3T3 fibroblasts, dose response, counter-screen, cell-based, ATP luminescence, mouse fibroblasts (AID 2010); format: functional;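 further: cells exposed to compound for about 90 hours before reading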
[21] = Shn3 3'UTR reporter inhibitors, dose response, cell-based, Clone20 osteoblasts, firefly luciferase, cherry-picked (AID 624132); format: functional;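 further: firefly luciferase luminescence from reporter carrying the Shn3 3'UTR in osteoblasts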
[22] = HepG2 cell cytotoxicity, dose response, cytotoxicity control for Shn3 inhibitor project, CellTiter-Glo, cherry-picked (AID 624134); format: functional, cell-based
[23] = control 3'UTR Renilla luciferase suppression, dose response, counter-screen for Shn3 inhibitor project, cell-based, Clone20-Shn3RL, cherry-picked (AID 624133); format: functional
[24] = Luminescence Cell-Based Dose Response to Identify Activators of 5'UTR Stem-Loop Driven Prion Protein mRNA Translation in H4-C Neuroglioblastoma Cells. [Related pubchem assays: 1829 (Project Summary), 1814 (Primary HTS)]; format: functional
[25] = Luminescence Cell-Based Dose Response HTS to Identify Activators of Luciferase Translation or Activity in H4 […] Cells. [Related pubchem assays: 1829 (Project Summary), 1814 (Primary HTS)]; format: functional
H4 = test: Luminescence Cell-Based Dose Response HTS to Identify Activators of 5'UTR Stem-Loop Driven Prion Protein mRNA Translation in H4 Neuroglioblastoma Cells. [Related pubchem assays: 1829 (Project Summary), 1814 (Primary HTS)]; format: functional; conditions: Homo sapiens
[26] = Luminescence Cell-Based Dose Response to Identify Activators of Luciferase Translation or Activity in H4-C Neuroglioblastoma Cells. [Related pubchem assays: 1829 (Project Summary), 1814 (Primary HTS)]; format: functional
[27] = Luminescence Cell-Based Dose Confirmation to Identify Activators of 5'UTR Stem-Loop Driven Alpha-Synuclein mRNA Translation in H4 Neuroglioblastoma Cells. [Related pubchem assays: 1829 (Project Summary), 1814 (Primary HTS)]; format: functional
[28] = P. falciparum late gametocyte killing, dose response, luminescence (AID 1117278); format: functional, cell-based;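 further: gametocytes exposed to compound for 24 hours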
[29] = Jurkat T cell cytotoxicity, dose response, cytotoxicity control for P. falciparum gametocyte viability project, luminescence (AID 1117277); format: functional, cell-based;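 further: potency reflects loss of cellular ATP meaning fewer viable cells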

Chain of Photoreceptor-specific nuclear receptor (Q9Y5X4 whole entry): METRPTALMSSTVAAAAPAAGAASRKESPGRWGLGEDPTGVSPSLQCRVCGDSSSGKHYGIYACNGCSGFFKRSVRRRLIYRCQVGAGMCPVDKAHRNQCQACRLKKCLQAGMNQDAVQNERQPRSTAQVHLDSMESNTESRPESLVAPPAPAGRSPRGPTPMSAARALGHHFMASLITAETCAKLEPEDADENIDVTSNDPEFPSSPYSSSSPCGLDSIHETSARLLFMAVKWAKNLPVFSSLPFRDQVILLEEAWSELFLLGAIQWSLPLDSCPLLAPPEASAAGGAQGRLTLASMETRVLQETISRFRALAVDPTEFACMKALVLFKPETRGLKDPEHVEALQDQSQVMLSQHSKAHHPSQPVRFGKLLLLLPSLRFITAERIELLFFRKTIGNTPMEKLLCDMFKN
Chain of Glyceraldehyde-3-phosphate dehydrogenase (P04406 whole entry): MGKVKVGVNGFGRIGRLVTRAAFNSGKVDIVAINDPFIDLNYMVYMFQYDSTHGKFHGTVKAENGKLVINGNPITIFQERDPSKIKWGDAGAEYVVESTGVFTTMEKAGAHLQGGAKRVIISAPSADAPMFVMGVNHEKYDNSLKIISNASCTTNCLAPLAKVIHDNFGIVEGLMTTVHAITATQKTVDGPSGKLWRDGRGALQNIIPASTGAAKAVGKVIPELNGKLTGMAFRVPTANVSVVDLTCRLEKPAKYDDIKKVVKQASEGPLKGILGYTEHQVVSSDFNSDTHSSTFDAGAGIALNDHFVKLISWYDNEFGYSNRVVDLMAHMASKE
Chain of Peroxisome proliferator-activated receptor gamma/Nuclear receptor corepressor 2 (P37231 whole entry): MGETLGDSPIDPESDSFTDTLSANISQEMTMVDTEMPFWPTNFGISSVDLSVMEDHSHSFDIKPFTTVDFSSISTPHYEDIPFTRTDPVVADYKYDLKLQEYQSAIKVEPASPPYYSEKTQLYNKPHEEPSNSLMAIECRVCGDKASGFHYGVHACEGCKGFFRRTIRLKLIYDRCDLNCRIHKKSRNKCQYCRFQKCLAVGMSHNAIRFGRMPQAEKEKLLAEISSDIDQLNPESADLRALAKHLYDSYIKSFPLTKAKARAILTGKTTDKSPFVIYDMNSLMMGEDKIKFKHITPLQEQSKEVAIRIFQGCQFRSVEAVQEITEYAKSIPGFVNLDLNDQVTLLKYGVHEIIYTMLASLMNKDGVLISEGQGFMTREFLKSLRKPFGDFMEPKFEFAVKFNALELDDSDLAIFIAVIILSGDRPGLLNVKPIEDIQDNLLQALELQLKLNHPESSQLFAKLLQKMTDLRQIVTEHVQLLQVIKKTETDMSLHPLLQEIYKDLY
Chain of Peroxisome proliferator-activated receptor gamma/Nuclear receptor corepressor 2 (Q9Y618 whole entry): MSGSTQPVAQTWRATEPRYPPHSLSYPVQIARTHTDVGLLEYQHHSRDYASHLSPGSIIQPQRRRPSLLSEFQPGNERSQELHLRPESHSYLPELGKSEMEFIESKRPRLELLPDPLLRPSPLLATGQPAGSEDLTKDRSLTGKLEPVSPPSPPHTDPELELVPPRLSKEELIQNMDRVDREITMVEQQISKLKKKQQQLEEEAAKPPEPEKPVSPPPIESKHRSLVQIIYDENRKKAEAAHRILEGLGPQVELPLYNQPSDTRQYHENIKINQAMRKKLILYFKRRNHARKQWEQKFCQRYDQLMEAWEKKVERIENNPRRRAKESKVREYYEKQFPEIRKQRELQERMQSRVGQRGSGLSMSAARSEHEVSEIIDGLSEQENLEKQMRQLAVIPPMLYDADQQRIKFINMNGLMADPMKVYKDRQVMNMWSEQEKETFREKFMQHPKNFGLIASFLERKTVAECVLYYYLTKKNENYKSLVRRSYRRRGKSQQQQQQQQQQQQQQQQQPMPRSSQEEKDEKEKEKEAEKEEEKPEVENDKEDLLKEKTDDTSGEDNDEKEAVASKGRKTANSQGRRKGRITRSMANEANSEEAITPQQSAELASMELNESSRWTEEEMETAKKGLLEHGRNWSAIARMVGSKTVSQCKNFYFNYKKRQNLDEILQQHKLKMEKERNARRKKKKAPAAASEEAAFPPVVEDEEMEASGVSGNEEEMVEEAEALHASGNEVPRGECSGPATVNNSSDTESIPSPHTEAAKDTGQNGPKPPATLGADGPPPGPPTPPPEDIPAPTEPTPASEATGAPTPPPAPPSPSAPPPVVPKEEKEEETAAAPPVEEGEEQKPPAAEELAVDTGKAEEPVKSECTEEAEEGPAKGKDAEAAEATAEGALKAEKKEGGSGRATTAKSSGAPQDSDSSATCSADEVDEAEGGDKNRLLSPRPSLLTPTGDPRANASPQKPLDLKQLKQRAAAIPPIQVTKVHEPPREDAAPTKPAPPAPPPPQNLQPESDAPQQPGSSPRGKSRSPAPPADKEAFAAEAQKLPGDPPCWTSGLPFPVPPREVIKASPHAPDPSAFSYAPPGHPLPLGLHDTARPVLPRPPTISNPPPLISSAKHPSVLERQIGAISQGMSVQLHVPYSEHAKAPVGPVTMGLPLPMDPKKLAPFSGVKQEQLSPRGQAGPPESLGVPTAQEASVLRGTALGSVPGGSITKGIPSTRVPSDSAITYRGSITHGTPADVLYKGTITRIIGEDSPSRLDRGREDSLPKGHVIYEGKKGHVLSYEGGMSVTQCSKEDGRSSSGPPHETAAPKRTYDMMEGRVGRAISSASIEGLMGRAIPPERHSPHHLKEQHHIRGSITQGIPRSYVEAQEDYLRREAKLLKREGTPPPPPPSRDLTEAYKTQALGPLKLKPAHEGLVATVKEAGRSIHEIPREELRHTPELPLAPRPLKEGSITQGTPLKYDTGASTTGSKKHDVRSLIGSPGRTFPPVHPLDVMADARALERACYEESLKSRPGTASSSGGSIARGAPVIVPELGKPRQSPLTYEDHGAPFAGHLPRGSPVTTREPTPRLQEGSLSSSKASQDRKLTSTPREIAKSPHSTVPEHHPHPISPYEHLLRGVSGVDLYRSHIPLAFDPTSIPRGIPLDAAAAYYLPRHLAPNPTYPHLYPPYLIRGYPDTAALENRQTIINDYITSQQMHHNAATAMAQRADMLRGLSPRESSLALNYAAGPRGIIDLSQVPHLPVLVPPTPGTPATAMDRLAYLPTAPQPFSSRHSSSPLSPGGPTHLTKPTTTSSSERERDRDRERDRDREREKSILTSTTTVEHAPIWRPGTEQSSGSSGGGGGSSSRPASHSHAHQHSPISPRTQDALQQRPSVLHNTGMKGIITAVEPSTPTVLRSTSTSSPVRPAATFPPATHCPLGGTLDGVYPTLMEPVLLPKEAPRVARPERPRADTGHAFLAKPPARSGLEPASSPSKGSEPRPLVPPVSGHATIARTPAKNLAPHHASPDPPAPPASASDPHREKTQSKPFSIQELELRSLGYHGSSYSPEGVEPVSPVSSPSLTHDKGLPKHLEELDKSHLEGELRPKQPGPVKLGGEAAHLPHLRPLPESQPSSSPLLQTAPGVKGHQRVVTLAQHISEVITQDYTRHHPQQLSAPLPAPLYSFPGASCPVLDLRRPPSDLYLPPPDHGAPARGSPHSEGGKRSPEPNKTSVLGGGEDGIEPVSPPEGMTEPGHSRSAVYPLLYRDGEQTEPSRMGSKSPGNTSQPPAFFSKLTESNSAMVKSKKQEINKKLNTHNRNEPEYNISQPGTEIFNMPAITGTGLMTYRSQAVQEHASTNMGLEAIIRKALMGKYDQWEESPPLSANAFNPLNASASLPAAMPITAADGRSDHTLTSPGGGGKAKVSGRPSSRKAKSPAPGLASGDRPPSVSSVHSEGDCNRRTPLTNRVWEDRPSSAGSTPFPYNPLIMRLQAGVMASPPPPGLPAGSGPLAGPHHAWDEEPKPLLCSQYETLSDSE
Chain of Estrogen receptor beta (Q92731 whole entry): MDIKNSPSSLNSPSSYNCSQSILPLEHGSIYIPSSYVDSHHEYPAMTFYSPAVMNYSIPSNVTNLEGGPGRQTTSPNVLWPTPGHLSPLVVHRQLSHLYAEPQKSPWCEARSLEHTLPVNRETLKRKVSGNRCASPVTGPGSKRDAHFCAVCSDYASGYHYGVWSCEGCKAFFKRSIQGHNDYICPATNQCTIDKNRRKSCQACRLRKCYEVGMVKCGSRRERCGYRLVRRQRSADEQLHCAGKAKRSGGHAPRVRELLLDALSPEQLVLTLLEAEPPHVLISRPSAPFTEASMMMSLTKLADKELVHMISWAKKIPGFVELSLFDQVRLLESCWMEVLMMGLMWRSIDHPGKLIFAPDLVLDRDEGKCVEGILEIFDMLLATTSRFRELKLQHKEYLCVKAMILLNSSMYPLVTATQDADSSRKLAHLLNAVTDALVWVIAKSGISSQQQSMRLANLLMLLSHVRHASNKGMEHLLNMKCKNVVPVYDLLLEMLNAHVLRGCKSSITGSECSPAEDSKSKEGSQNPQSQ

Q: For `CC(=O)Nc1ccc(NC(=O)CNC(=O)c2sc3ccccc3c2Cl)cc1`, which IC50 [1] is on record?
A: Its IC50 is 11.1 µM (not active).

Q: What about the IC50 [2] of the same molecule?
A: The IC50 was 15.5 µM (not active).

Q: Which IC50 (Bcl-2-related protein A1 [3]) does the source give for `CC1CCN(Cc2ccc(NC(=O)C3CCN(c4nnc(-n5cccc5)s4)CC3)cc2)CC1` here?
A: Its IC50 is > 100 µM (not active).

Q: And the IC50 [4]?
A: Its IC50 is > 100 µM (not active).

Q: What about the IC50 (Bcl-2-related protein A1 [5]) of the same molecule?
A: The IC50 was 35.1 µM (active) and > 100 µM (not active).

Q: What about the IC50 (Bcl-2-related protein A1 [6]) of the same molecule?
A: The IC50 was 20.8 µM (active).

Q: What about the EC50 [7] of the same molecule?
A: The EC50 was 21.4 µM (active).

Q: And the IC50 (Estrogen receptor beta)?
A: Its IC50 is 1.1 µM (not active).

Q: What about the EC50 [8] of the same molecule?
A: Its EC50 is 61.6 µM (active).

Q: Which results are given for `COc1ccc(-c2cc3c(=O)n(CC(=O)NCCCN4CCC(Cc5ccccc5)CC4)ncn3n2)cc1`?
A: EC50 [9]: 9.23 µM (inconclusive); EC50 (BJ [10]): 10.1 µM (active); EC50 [11]: 11.4 µM (active); EC50 [12]: 8.06 µM (active); EC50 (BJ [13]): 16.4 µM (active); CC50 [14]: 34.2 µM (active); IC50 [15]: 6.82 µM (active); EC50 (BJ [16]): 12.9 µM (inconclusive); EC50 [17]: 8.08 µM (active); IC50 [18]: > 20 µM (inactive)

Q: With `c1ccc(Nc2nc(NCC3CCCO3)c3ccccc3n2)cc1` (configuration not stated) as the molecule, how does the EC50 [19] read?
A: Its EC50 is < 0.1 µM (active).

Q: What about the EC50 [20] of the same molecule?
A: The EC50 was > 60 µM (not active).

Q: What about the AC50 [21] of the same molecule?
A: Its AC50 is 21.7 µM (active).

Q: And the AC50 [22]?
A: The AC50 was 7.09 µM (active).

Q: And the AC50 [23]?
A: The AC50 was 4.84 µM (active).

Q: What about the EC50 (cells) of the same molecule?
A: Its EC50 is 0.131 µM (active).

Q: For `Cc1cc(C(=O)ON=C(N)c2ccc(C(C)(C)C)cc2)no1`, which EC50 [24] is on record?
A: Its EC50 is 1.78 µM (active).

Q: And the EC50 [25]?
A: The EC50 was < 0.1 µM (inconclusive).

Q: And the EC50 (H4)?
A: The EC50 was 110 µM (active).

Q: What about the EC50 [26] of the same molecule?
A: Its EC50 is 0.442 µM (active).

Q: What about the EC50 [27] of the same molecule?
A: Its EC50 is 0.737 µM (active).

Q: For `COc1ccc(CC(=O)Nc2cccc(-c3ccc4nnc(C)n4n3)c2)cc1OC`, which IC50 [28] is on record?
A: The IC50 was > 109 µM (inactive).

Q: What about the IC50 [29] of the same molecule?
A: The IC50 was 35.6 µM (inactive).

— ChEMBL document CHEMBL1201862, “PubChem BioAssay data set” (2004)
